This note sets out measurements from ChEMBL document CHEMBL4732205, “Structure-based optimization identified novel furyl-containing 2,4-diarylaminopyrimidine analogues as ALK/ROS1 dual inhibitors with anti-mutation effects” (Eur J Med Chem, 2021).

Type in all cases: functional, cell-based
The subject of one assay is KARPAS-299. Put plainly: Antiproliferative activity against human KARPAS-299 cells assessed as reduction in cell growth incubated for 72 hrs by MTT assay. The following applies: KARPAS-299, 72 h.
In the next assay the test system is MCF7. Put plainly: Antiproliferative activity against human MCF7 cells assessed as reduction in cell growth incubated for 72 hrs by MTT assay. The following applies: MCF7, 72 h.
Another assay deals with A549. Put plainly: Antiproliferative activity against human A549 cells assessed as reduction in cell growth incubated for 72 hrs by MTT assay. The conditions noted are these: A549, 72 h.
The next assay has as its system NCI-H2228. Put plainly: Antiproliferative activity against human NCI-H2228 cells assessed as reduction in cell growth incubated for 72 hrs by MTT assay. The conditions noted are these: NCI-H2228, 72 h.

Where only a bound is given, the exact number is not on record here.

With `COc1cc(SCc2ccc(CN3CCC(C)CC3)o2)ccc1Nc1ncc(Cl)c(Nc2ccccc2NS(C)(=O)=O)n1`, the 50% inhibitory concentration (IC50) in the assay on KARPAS-299 was 0.12 µM; in the assay with MCF7 it was greater than 10 µM; in the assay with A549 it was greater than 10 µM; with NCI-H2228, 0.2 µM.

As to `CCN(CC)Cc1ccc(CSc2ccc(Nc3ncc(Cl)c(Nc4ccccc4NS(C)(=O)=O)n3)c(OC)c2)o1`, the half-inhibitory concentration (IC50) in the assay with KARPAS-299 is 0.18 µM; in the assay with MCF7 it was greater than 10 µM; with A549, greater than 10 µM; with NCI-H2228, 0.34 µM.

Regarding `COc1cc(SCc2ccc(CN3CCOCC3)o2)ccc1Nc1ncc(Cl)c(Nc2ccccc2NS(C)(=O)=O)n1`, the IC50 with KARPAS-299 is 0.15 µM; with MCF7, greater than 10 µM; in the assay on A549 it was 0.92 µM; with NCI-H2228, 0.43 µM.

For `COc1cc(SCc2ccc(CN3CCCCC3)o2)ccc1Nc1ncc(Cl)c(Nc2ccccc2NS(C)(=O)=O)n1`, the IC50 with KARPAS-299 is 0.35 µM; with MCF7 it was greater than 10 µM; in the assay with A549 it was 3.92 µM; in the assay on NCI-H2228 it was 0.5 µM.

As for `COc1cc(SCc2ccc(CN3CCSCC3)o2)ccc1Nc1ncc(Cl)c(Nc2ccccc2NS(C)(=O)=O)n1`, the IC50 in the assay with KARPAS-299 was 0.66 µM; in the assay on MCF7 it was greater than 10 µM; in the assay with A549, greater than 10 µM; in the assay on NCI-H2228, 0.86 µM.

Take `COc1cc(SCc2ccco2)ccc1Nc1ncc(Cl)c(Nc2ccccc2NS(C)(=O)=O)n1`: the half-inhibitory concentration (IC50) in the assay on KARPAS-299 was 0.82 µM; in the assay with MCF7, greater than 10 µM; in the assay with A549, greater than 10 µM; in the assay with NCI-H2228, 1.36 µM.

Regarding `COc1cc(NCc2ccc(CN3CCCCC3)o2)ccc1Nc1ncc(Cl)c(Nc2ccccc2NS(C)(=O)=O)n1`, the IC50 is 0.28 µM in the assay with KARPAS-299, greater than 10 µM in the assay on MCF7, 2.36 µM with A549 and 0.35 µM in the assay with NCI-H2228.

Regarding `COc1cc(OCc2ccco2)ccc1Nc1ncc(Cl)c(Nc2ccccc2NS(C)(=O)=O)n1`, the IC50 in the assay with MCF7 was greater than 10 µM; in the assay on A549, greater than 10 µM; in the assay on NCI-H2228 it was 1.59 µM.

With `COc1cc(S(=O)(=O)Cc2ccco2)ccc1Nc1ncc(Cl)c(Nc2ccccc2NS(C)(=O)=O)n1`, the IC50 in the assay with KARPAS-299 was 1.23 µM; in the assay on MCF7, greater than 10 µM; in the assay with A549 it was greater than 10 µM; in the assay on NCI-H2228 it was 1.7 µM.

For the molecule `COc1cc(NCc2ccc(CN3CCN(CCO)CC3)o2)ccc1Nc1ncc(Cl)c(Nc2ccccc2NS(C)(=O)=O)n1`, the IC50 was 0.87 µM in the assay on KARPAS-299, greater than 10 µM with MCF7, greater than 10 µM with A549 and 0.99 µM with NCI-H2228.

In the case of `COc1cc(NCc2ccc(CN3CCCC3)o2)ccc1Nc1ncc(Cl)c(Nc2ccccc2NS(C)(=O)=O)n1`, the 50% inhibitory concentration (IC50) with KARPAS-299 was 0.35 µM; in the assay on MCF7 it was greater than 10 µM; in the assay on A549, greater than 10 µM; with NCI-H2228, 0.42 µM.

As to `COc1cc(SCc2ccc(CN3CCN(CCO)CC3)o2)ccc1Nc1ncc(Cl)c(Nc2ccccc2NS(C)(=O)=O)n1`, the 50% inhibitory concentration (IC50) was 0.51 µM in the assay with KARPAS-299, greater than 10 µM in the assay on MCF7, greater than 10 µM in the assay with A549 and 0.82 µM with NCI-H2228.

For `COc1cc(NCc2ccco2)ccc1Nc1ncc(Cl)c(Nc2ccccc2NS(C)(=O)=O)n1`, the IC50 with KARPAS-299 is 0.98 µM; in the assay on MCF7, greater than 10 µM; in the assay with A549 it was greater than 10 µM; in the assay with NCI-H2228, 1.58 µM.

For the molecule `Cc1cc(Nc2ncc(Cl)c(Nc3ccccc3S(=O)(=O)C(C)C)n2)c(OC(C)C)cc1C1CCNCC1` [CERITINIB], the figures for the IC50 in the assay on KARPAS-299 and in the assay on MCF7 were 0.08 µM and greater than 10 µM, respectively.

In the case of `COc1cc(S(=O)(=O)Cc2ccco2)ccc1Nc1ncc(Cl)c(Nc2ccccc2NC(C)=O)n1`, the half-maximal inhibitory concentration (IC50) is 2.41 µM with KARPAS-299, greater than 10 µM with MCF7, greater than 10 µM with A549 and 3.79 µM in the assay with NCI-H2228.

As to `COc1cc(NCc2ccc(CN3CCOCC3)o2)ccc1Nc1ncc(Cl)c(Nc2ccccc2NS(C)(=O)=O)n1`, the half-maximal inhibitory concentration (IC50) with KARPAS-299 is 0.23 µM; in the assay with MCF7, greater than 10 µM; in the assay with A549, greater than 10 µM; with NCI-H2228 it was 0.32 µM.

As to `COc1cc(SCc2ccc(CN3CCN(C)CC3)o2)ccc1Nc1ncc(Cl)c(Nc2ccccc2NS(C)(=O)=O)n1`, the IC50 in the assay on KARPAS-299 was 0.14 µM; in the assay with MCF7 it was greater than 10 µM; in the assay with A549 it was greater than 10 µM; with NCI-H2228 it was 0.48 µM.

Consider `COc1cc(NCc2ccc(CN(C)C)o2)ccc1Nc1ncc(Cl)c(Nc2ccccc2NS(C)(=O)=O)n1`, for which the IC50 is 0.2 µM in the assay with KARPAS-299, greater than 10 µM with MCF7, 3.04 µM in the assay with A549 and 0.52 µM with NCI-H2228.

As to `COc1cc(NCc2ccco2)ccc1Nc1ncc(Cl)c(Nc2ccccc2NC(C)=O)n1`, the concentration for half-maximal inhibition (IC50) with KARPAS-299 was 2.47 µM; with MCF7, greater than 10 µM; with A549 it was greater than 10 µM; in the assay on NCI-H2228, 3.54 µM.

As for `CCN1CCN(Cc2ccc(CSc3ccc(Nc4ncc(Cl)c(Nc5ccccc5NS(C)(=O)=O)n4)c(OC)c3)o2)CC1`, the IC50 in the assay on KARPAS-299 was 0.28 µM; in the assay on MCF7 it was greater than 10 µM; in the assay on A549, greater than 10 µM; with NCI-H2228 it was 0.67 µM.

With `CCN(CC)Cc1ccc(CNc2ccc(Nc3ncc(Cl)c(Nc4ccccc4NS(C)(=O)=O)n3)c(OC)c2)o1`, the IC50 in the assay with KARPAS-299 is 0.35 µM; with MCF7, greater than 10 µM; in the assay on A549, 3.56 µM; with NCI-H2228, 0.57 µM.

On to `COc1cc(NCc2ccc(CN3CCN(C)CC3)o2)ccc1Nc1ncc(Cl)c(Nc2ccccc2NS(C)(=O)=O)n1`, for which the IC50 with KARPAS-299 is 0.36 µM; in the assay on MCF7 it was greater than 10 µM; in the assay with A549, greater than 10 µM; in the assay with NCI-H2228 it was 0.48 µM.

For the molecule `COc1cc(NCc2ccc(CN3CCC(C)CC3)o2)ccc1Nc1ncc(Cl)c(Nc2ccccc2NS(C)(=O)=O)n1`, the half-maximal inhibitory concentration (IC50) with KARPAS-299 is 0.62 µM; with MCF7, greater than 10 µM; in the assay on A549 it was greater than 10 µM; in the assay on NCI-H2228, 0.53 µM.

Consider `CCN1CCN(Cc2ccc(CNc3ccc(Nc4ncc(Cl)c(Nc5ccccc5NS(C)(=O)=O)n4)c(OC)c3)o2)CC1`, for which the IC50 with KARPAS-299 was 0.4 µM; in the assay with MCF7, greater than 10 µM; in the assay with A549, greater than 10 µM; in the assay on NCI-H2228, 0.72 µM.

In the case of `COc1cc(NCc2ccc(CN3CCSCC3)o2)ccc1Nc1ncc(Cl)c(Nc2ccccc2NS(C)(=O)=O)n1`, the IC50 in the assay with KARPAS-299 is 1.02 µM; in the assay with MCF7, greater than 10 µM; in the assay on A549, greater than 10 µM; in the assay with NCI-H2228 it was 1.6 µM.
